Data taken from patent US7008949B2, “Heterocyclic compounds which inhibit leukocyte adhesion mediated by α4 integrins” (Elan Pharmaceuticals, Inc., priority 2003, dated 2006).

Assays:
[1] = target: T1, α4β1 Integrin (Homo sapiens, UniProt P05556+P13612); assay: α4β1 Integrin Adhesion Assay: Jurkat cell adhesion to human plasma fibronectin; type: cell-based; settings: Jurkat cells
T1 construct: endogenous in cells; host or cells: Jurkat cells
Experimental: 96 well plates (Costar 3590 EIA plates) were coated with human fibronectin (Gibco/BRL, cat #33016-023) at a concentration of 10 μg/mL overnight at 4° C. The plates were then blocked with a solution of bovine serum albumin (BSA; 0.3%) in saline. Jurkat™ cells (maintained in log phase growth) were labeled with Calcein AM according to the manufacturer's instructions, and suspended at a concentration of 2×10^6 cells/mL in Hepes/Saline/BSA. The cells were then exposed to test and control compounds for 30 minutes at room temperature before transfer to individual wells of the fibronectin coated plate. Adhesion was allowed to occur for 35 minutes at 37° C. The wells were then washed by gentle aspiration and pipetting with fresh saline. Fluorescence associated with the remaining adherent cells was quantified using a fluorescence plate reader at EX 485/EM 530.
Cell cultures were prepared by first splitting the stationary phase Jurkat™ cells at 1:10 on day one, and 1:2 on day two to perform assay on day 3. The cells split 1:10 on day one were split 1:4 on day 3 for a day 4 assay.
The assay plates were prepared by first making a working solution of Gibco/BRL Human Fibronectin (cat # 33016-023) in PBS++, at 10 μg/mL.
A Costar 3590 EIA plate was then coated with 50 μL/well for 2 hours at room temperature (thought it can also be left overnight at 4° C.). Finally the plate was asperated and blocked with Hepes/Saline Buffer, 100 μL/well, for 1 hour at RT followed by washing three times with 150 μL of PBS++.
Compound dilutions were accomplished by preparing 1:3 serial dilutions of compounds as follows. For each plate (4 compounds/plate) 600 μL were added to 4 Bio-Rad Titertubes in a Titertube rack. Enough compound was added to each appropriate tube to give a 2× concentration using methods well known in the art. Using Falcon Flexiplates, 100 μL of Hepes/Saline buffer or human serum were added to rows B through G. A multi-channel pipetter set to 180 μL was used to with four tips spaced evenly the pipetter. Each set of four tubes was mixed 5 times and 180 μL of 2× compound was transferred to the first column of each compound dilution in Row B, leaving Row A empty. 180 μL were added to the other wells in Row A. Serial dilutions were performed down the plate by transferring 50 μL to the next dilution and mixing 5 times, changing tips each time after mixing. Dilutions were stopped at Row F. Row G had no compound present.
A 20 μg/mL solution in Hepes/Saline buffer or human serum, of 21/6 antibody was the positive control and was set aside in a reagent trough to add to cell suspension plate.
The cell staining was accomplished by first harvesting the log-phase Jurkat™ cells by centrifugation in 50 mL tubes (1100 rpm for 5 minutes). The cells were resuspended in 50 mL PBS++, spun, and resuspend in 20 mL PBS++. The cells were stained by adding 20 μL of Calcein AM for 30 minutes R.T. The volume was brought to 50 mL with Hepes/Saline buffer and the cells were counted, spun, and resuspend to 2×10^6 cells/mL in Hepes/Saline buffer or human serum.
The compounds were incubated using the following procedure. In a new flexiplate, 65 μL of stained cells were added to Rows B through H. Then 65 μL of 2× compounds were added to the appropriate rows following the plate setup and mixed 3×. 65 μL of 2×-21/6 antibody were added to Row H and mixed 3×. Finally the plate was incubated at room temperature for 30 minutes.
Fibronectin adhesion was measured using a fluorescent plate reader at EX 485/EM 530 after the following work up procedure. After incubation, the cells were mixed 3× and 100 μL were transferred to the Fibronectin coated plates and incubated at 37° C. for about 35 minutes. Each plate was washed, row by row, by gently pipetting 100 μL of R.T. PBS++ down the sides of the wells and turning the plate 90 degrees to aspirate. This procedure was repeated for a total of 3 washes. Each well was filled with 100 μL after washing by pipetting down the side of the well. […]

[2] = Cassette dosing and serum analysis for determination of oral bioavailability; type: in vivo, rat; settings: male SD rats, oral cassette of 6 compounds, total dose 10 mg/kg, plasma at 4, 8, 12 h
Experimental: The oral bioavailability was screened by dosing rats with a cassette, i.e. mixture of 6 compounds per dosing solution. The cassette included 5 test articles and a standard compound, for a total dose of 10 mg/kg. Each compound/test article was converted to the sodium salt with equimolar 1 N NaOH and dissolved in water at 2 mg/mL. The cassette was prepared by mixing equal volumes of each of the six solutions. The cassette dosing solution was mixed well and then the pH was adjusted to 7.5–9. The dosing solution was prepared the day before the study and stirred overnight at room temperature.
Male Sprague Dawley (SD) rats from Charles River Laboratories, 6–8 weeks old were used in this screen. Rats were quarantined for at least one day and had continuous access to food and water. On the night before the administration of the cassette, the rats were fasted for approximately 16 h.
Four SD rats were assigned in each cassette. A single dose of the dosing solution was administered orally to each rat. The dosing volume (5 mL/kg) and time were recorded and rats were fed 2 h after dosing.
Blood samples were collected via cardiac puncture at the following time points: 4 h, 8 h and 12 h. Immediately prior to blood collection, rats were anesthetized with CO2 gas within 10–20 seconds. After the 12-hour samples were collected, the rats were euthanized via CO2 asphyxiation followed by cervical dislocation.
Blood samples were kept in heparinized microtainer tubes under sub-ambient temperature (4° C.) before they were processed. Blood samples were centrifuged (10000 rpm for 5 minutes) and plasma samples were removed and stored in a −20° C. freezer until analyzed for drug levels. Drug levels in the plasma were analyzed using the following protocol for direct plasma precipitation.
The in vivo plasma samples were prepared in a 1.5 mL 96-well plate, by adding, in order, 100 μL of the test plasma, 150 μL of methanol, followed by vortexing for 10–20 seconds. 150 μL of 0.05 ng/μL of an Internal Standard in acetonitrile were added and vortexed for 30 seconds.
The standard curve samples were prepared in a 1.5 mL 96-well plate, by adding, in order, 100 μL of control mouse plasma, followed by 150 μL of methanol and vortexing for 10–20 seconds. 150 μL of 0.05 ng/μL of an Internal Standard in acetonitrile were added and vortexed for 30 seconds. The samples were spiked with 0–200 ng (10 concentrations) of the compound of interest in 50% methanol to obtain a standard curve range of 0.5 ng/mL–2,000 ng/mL. Again, the sample was vortexed for 30 seconds.
The samples were then spun for 20–30 minutes at 3000 rpm in an Eppendorf microfuge before 80–90% of supernatant was transferred into a clean 96-well plate. The organic solvent was then evaporated until the samples were dry (under N2 at 40° C./30–60 min (ZymarkTurbovap)).
The residue was then dissolved in […] mobile phase (50% CH3OH/0.1% TFA). LC/MS/MS was then run using a PE-Sciex API-3000 triple quadurpole mass spectrometer (SN0749707), Perkin-Elmer, Series200auto-sampler, and shimadzu 10A pump. Acquisition was done with PE-Sciex Analyst (v1.1) and data analysis and quantification were accomplished using PE-Sciex Analyst (v1.1). A 5–50 μL sample volume was injected onto a reverse phase ThermoHypersil DASH-18 column (Keystone 2.0×20 mm, 5 μm, PN: 8823025-701) using a mobile phase of 25% CH3OH, 0.1% TFA-100% CH3OH, 0.1% TFA. The run time was about 8 minutes at a flow rate of about 300 μL/minutes.
The Area Under the Curve (AUC) was calculated using the linear trapezoidal rule from t=0 to the last sampling time tx (see Handbook of Basic Pharmacokinetics, Wolfgang A. Ritschel and Gregory L. Kearns, 5th ed, 1999). AUC^0→tx═S((Cn+Cn+1)/2))·(tn+1−tn)[(μg/mL)h]
In the case of the cassette dosing paradigm, samples at 4, 8 and 12 h post extravascular dosing, the AUC was calculated from t=0 to t=12 h.

[3] = IC50, Cell Adhesion to Human Plasma Fibronectin (With Human Serum), with human serum
[4] = IC50, Cell Adhesion to Human Plasma Fibronectin (Without the Human Serum), without human serum

T1 sequence (P13612 34-1032): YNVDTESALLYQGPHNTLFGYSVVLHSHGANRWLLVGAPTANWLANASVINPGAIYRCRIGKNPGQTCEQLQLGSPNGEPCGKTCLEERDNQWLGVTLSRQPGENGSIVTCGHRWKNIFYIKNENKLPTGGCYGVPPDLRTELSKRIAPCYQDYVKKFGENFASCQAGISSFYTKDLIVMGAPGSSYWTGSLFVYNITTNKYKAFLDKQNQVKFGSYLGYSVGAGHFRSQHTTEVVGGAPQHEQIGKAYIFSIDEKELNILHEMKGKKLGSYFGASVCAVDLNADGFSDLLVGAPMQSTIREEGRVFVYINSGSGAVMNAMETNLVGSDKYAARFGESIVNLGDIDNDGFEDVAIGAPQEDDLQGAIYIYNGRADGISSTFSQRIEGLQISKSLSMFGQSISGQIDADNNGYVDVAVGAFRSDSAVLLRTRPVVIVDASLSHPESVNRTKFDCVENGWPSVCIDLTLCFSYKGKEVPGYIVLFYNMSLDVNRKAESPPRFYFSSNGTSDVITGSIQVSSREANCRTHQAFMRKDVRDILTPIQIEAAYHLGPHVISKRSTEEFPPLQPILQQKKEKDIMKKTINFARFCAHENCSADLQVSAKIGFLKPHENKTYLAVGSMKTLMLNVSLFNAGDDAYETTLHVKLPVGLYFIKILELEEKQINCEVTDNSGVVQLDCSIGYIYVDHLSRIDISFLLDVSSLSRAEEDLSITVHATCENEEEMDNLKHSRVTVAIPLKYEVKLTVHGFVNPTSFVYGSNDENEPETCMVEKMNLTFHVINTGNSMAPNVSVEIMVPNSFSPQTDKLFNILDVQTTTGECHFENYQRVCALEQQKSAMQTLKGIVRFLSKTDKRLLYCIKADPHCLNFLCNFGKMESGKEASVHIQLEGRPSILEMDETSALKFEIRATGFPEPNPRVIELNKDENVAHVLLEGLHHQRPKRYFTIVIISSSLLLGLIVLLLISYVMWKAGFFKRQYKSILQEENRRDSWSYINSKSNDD
T1 sequence (P05556 21-798): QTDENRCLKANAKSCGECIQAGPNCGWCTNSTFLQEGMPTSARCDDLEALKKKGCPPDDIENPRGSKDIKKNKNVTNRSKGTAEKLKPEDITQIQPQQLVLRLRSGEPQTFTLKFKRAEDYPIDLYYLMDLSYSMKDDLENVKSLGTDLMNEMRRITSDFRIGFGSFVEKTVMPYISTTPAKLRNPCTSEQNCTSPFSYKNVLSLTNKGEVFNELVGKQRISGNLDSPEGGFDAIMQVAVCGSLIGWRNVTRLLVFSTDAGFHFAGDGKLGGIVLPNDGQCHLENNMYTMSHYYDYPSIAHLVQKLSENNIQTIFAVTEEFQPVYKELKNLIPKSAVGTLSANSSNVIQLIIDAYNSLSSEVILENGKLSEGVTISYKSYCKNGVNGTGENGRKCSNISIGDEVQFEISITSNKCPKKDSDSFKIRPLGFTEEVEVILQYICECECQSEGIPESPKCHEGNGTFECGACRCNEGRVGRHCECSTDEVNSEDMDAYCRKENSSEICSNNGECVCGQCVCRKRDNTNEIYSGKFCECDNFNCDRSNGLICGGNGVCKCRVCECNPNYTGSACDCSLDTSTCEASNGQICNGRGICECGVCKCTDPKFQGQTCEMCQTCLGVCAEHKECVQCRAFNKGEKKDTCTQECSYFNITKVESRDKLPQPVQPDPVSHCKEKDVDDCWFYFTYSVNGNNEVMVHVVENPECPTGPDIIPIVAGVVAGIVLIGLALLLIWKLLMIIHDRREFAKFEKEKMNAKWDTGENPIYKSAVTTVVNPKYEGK

Compound	IC50 [1, 3]	IC50 [1, 4]	AUC (average AUC 0→12 h) [2]
CCN(CC)c1ncc(N(C(C)C)S(=O)(=O)c2ccc(Cl)cc2)c(N[C@@H](Cc2ccc(OC(=O)N(C)C)cc2)C(=O)O)n1 [Example 11]	362 nM	3.85 nM	0.4251 (μg/mL)h
CCN(CC)c1ncc(N(CC2CC2)S(=O)(=O)c2ccc(F)cc2)c(N[C@@H](Cc2ccc(OC(=O)N(C)C)cc2)C(=O)O)n1 [Example 14, 2-{2-diethylamino-5-[(4-fluorobenzenesulfonyl)cylclopropylmethylamino]pyrimidin-4-ylamino}-3-(4-dimethylcarbamoyl-oxyphenyl)propionic acid]	63.6 nM	1.59 nM	0.7164 (μg/mL)h
CCN(CC)c1ncc(N(C)S(=O)(=O)c2cc(F)cc(F)c2)c(N[C@@H](Cc2ccc(OC(=O)N(C)C)cc2)C(=O)O)n1 [Example 15, 2-{2-diethylamino-5-[(3.5-difluorobenzenesulfonyl)methylamino]pyrimidin-4-ylamino}-3-(4-dimethylcarbamoyloxypheyl) propionic acid]	205 nM	1.51 nM	0.2098 (μg/mL)h
CCN(CC)c1ncc(N(CC)S(=O)(=O)c2cc(F)cc(F)c2)c(N[C@@H](Cc2ccc(OC(=O)N(C)C)cc2)C(=O)O)n1 [Example 16, 2-{2-diethylamino-5-[(3.5-difluorobenzenesulfonyl)ethylamino]pyrimidin-4-ylamino}-3-(4-dimethylcarbamoyloxyphenyl) propionic acid]	108 nM	1.67 nM	0.1721 (μg/mL)h
CCN(CC)c1ncc(N(C)S(=O)(=O)c2ccc(F)cc2F)c(N[C@@H](Cc2ccc(OC(=O)N(C)C)cc2)C(=O)O)n1 [Example 17]	39.6 nM	1.65 nM	1.0075 (μg/mL)h
CCN(CC)c1ncc(N(CC)S(=O)(=O)c2ccc(F)cc2F)c(N[C@@H](Cc2ccc(OC(=O)N(C)C)cc2)C(=O)O)n1 [Example 18]	40.3 nM	3.22 nM	0.2578 (μg/mL)h
CCN(CC)c1ncc(N(C)S(=O)(=O)c2cc(Cl)cc(Cl)c2)c(N[C@@H](Cc2ccc(OC(=O)N(C)C)cc2)C(=O)O)n1 [Example 19]	133 nM	5.31 nM	0.0697 (μg/mL)h
CCN(CC)c1ncc(N(CC)S(=O)(=O)c2cc(Cl)cc(Cl)c2)c(N[C@@H](Cc2ccc(OC(=O)N(C)C)cc2)C(=O)O)n1 [Example 20]	119 nM	7.82 nM	0.0536 (μg/mL)h
CCCN(c1cnc(N(CC)CC)nc1NC(Cc1ccc(OC(=O)N(C)C)cc1)C(=O)O)S(=O)(=O)c1ccc(F)cc1 (stereo not drawn) [Example 21, 2-{2-diethylamino-5-[(4-fluorobenzenesulfonyl)-n-propylamino]pyrimidin-4-ylamino}-3-(4-dimethylcarbamoyloxyphenyl) propionic acid]	649 nM	5.09 nM	0.6321 (μg/mL)h
CCN(CC)c1ncc(N(CC(C)C)S(=O)(=O)c2ccc(F)cc2)c(N[C@@H](Cc2ccc(OC(=O)N(C)C)cc2)C(=O)O)n1 [Example 23, 2-{2-diethylamino-5-[(4-fluorobenzenesulfonyl)isobotylamino]pyrimidin-4-ylamino}-3-(4-dimethylcarbamoyloxyphenyl)propionic acid]	117 nM	6.34 nM	0.413 (μg/mL)h
CCCCN(c1cnc(N(CC)CC)nc1NC(Cc1ccc(OC(=O)N(C)C)cc1)C(=O)O)S(=O)(=O)c1ccc(F)cc1 (stereo not drawn) [Example 24, 2-{2-diethylamino-5-[(4-fluorobenzenesulfonyl)-n-butylamino]pyrimidin-4-ylamino}-3-(4-dimethylcarbamoyloxyphenyl)propionic acid]	42.8 nM	4.76 nM	0.4983 (μg/mL)h
